The record followed here is ChEMBL document CHEMBL5614413, “Design, synthesis and biological evaluation of amphiphilic benzopyran derivatives as potent antibacterial agents against multidrug-resistant bacteria” (Eur J Med Chem, 2024).

Data set [1] has as its system Staphylococcus aureus. The experiment in a line: Antibacterial activity against erythromycin-susceptible Staphylococcus aureus ATCC 25923. The data set is classed as functional.
The subject of data set [2] is Staphylococcus aureus. The experiment in a line: Antibacterial activity against penicillin-resistant Staphylococcus aureus ATCC 31007. It counts as functional.
Data set [3] has as its system Staphylococcus aureus. Description: Antibacterial activity against methicillin-resistant Staphylococcus aureus ATCC 43300. The data set is classed as functional.
For a further data set, the system named is Bacillus subtilis. The experiment in a line: Antibacterial activity against penicillin-susceptible Bacillus subtilis ATCC 9372. The data set is classed as functional.
A further data set relates to Enterococcus faecalis. Description: Antibacterial activity against vancomycin-susceptible Enterococcus faecalis ATCC 29212. The data set is classed as functional.
The subject of data set [4] is Staphylococcus epidermidis. Description: Antibacterial activity erythromycin-susceptible Staphylococcus epidermidis ATCC 12228. It counts as functional.
The test system of a further data set is Klebsiella pneumoniae. The experiment in a line: Antibacterial activity against Klebsiella pneumoniae ATCC 10031. It counts as functional.
The next data set relates to Acinetobacter baumannii. Description: Antibacterial activity against Acinetobacter baumannii ATCC 19606. It counts as functional.
The next data set deals with Escherichia coli. The experiment in a line: Antibacterial activity against penicillin-susceptible Escherichia coli ATCC 25922. It counts as functional.
Another data set concerns Pseudomonas aeruginosa. The experiment in a line: Antibacterial activity against penicillin-susceptible Pseudomonas aeruginosa ATCC 27853. The data set is classed as functional.
Data set [5] can be described thus: Hemolytic activity in sheep RBC. It counts as toxicity, cell-based, Ovis aries, Erythrocyte. The note with it: sheep red blood cells (erythrocytes).
A short description of data set [6]: Selectivity index, ratio of HC50 for hemolytic activity in sheep RBC to MIC for antibacterial activity against methicillin-resistant Staphylococcus aureus ATCC 43300. The data set is classed as toxicity. The note with it: sheep red blood cells (erythrocytes), read-out: Selectivity Index.

The structures appear in SMILES notation. Converted amounts (≈) assume the structure as drawn.

In the case of `CCCCN(CCCC)CCCNCCCOc1ccc(/C=C/C(=O)c2ccc3c(c2OC)C=CC(C)(CCC=C(C)C)O3)cc1` (stereo unspecified), the MIC (in general, the lowest concentration found to suppress growth) came out at 8 µg/mL (≈ 12.7 µM) in the data set on Staphylococcus aureus [1]; 4 µg/mL (≈ 6.34 µM) with Staphylococcus aureus [2]; 4 µg/mL (≈ 6.34 µM) in the data set with Staphylococcus aureus [3]; 4 µg/mL (≈ 6.34 µM) in the data set with Bacillus subtilis; 2 µg/mL (≈ 3.17 µM) with Enterococcus faecalis; 1 µg/mL (≈ 1.59 µM) in data set [4]. In addition, the minimum inhibitory concentration (MIC) in the data set with Klebsiella pneumoniae stood at 16 µg/mL (≈ 25.4 µM); against Acinetobacter baumannii, 8 µg/mL (≈ 12.7 µM); in the data set on Escherichia coli it was 4 µg/mL (≈ 6.34 µM); against Pseudomonas aeruginosa it was 128 µg/mL (≈ 203 µM). Moreover, in data set [5], the 50% haemolytic concentration (HC50) (commonly the concentration giving 50% haemolysis) is 66.9 µg/mL. Besides, in [6], the selectivity ratio came out at 16.7.

In the case of `CCN(CC)C(=O)COc1c(C(C)=O)ccc2c1C=CC(C)(CCC=C(C)C)O2` (stereo unspecified), the minimal inhibitory concentration (MIC) against Staphylococcus aureus [1] is over 128 µg/mL; against Staphylococcus aureus [2], over 128 µg/mL; against Staphylococcus aureus [3] it was 128 µg/mL (≈ 320 µM); in the data set with Bacillus subtilis, over 128 µg/mL; in the data set on Enterococcus faecalis it was over 128 µg/mL; in [4], over 128 µg/mL. Moreover, the minimal inhibitory concentration (MIC) against Klebsiella pneumoniae was over 128 µg/mL; with Acinetobacter baumannii it was 128 µg/mL (≈ 320 µM); against Escherichia coli it was over 128 µg/mL; in the data set with Pseudomonas aeruginosa, over 128 µg/mL. Besides, the HC50 in [5] came to 131 µg/mL. In addition, in data set [6], the selectivity ratio was 1.

As for `CC(=O)c1c(OCCCN(CCCN(C)C)CCCN(C)C)c2c(c3c1OC(C)(CCC=C(C)C)C=C3)OC(C)(CCC=C(C)C)C=C2` (stereo unspecified), the minimum inhibitory concentration (MIC) in the data set on Staphylococcus aureus [1] turned out to be 4 µg/mL (≈ 6.02 µM); in the data set on Staphylococcus aureus [2], 4 µg/mL (≈ 6.02 µM); with Staphylococcus aureus [3], 2 µg/mL (≈ 3.01 µM); in the data set on Bacillus subtilis, 4 µg/mL (≈ 6.02 µM); with Enterococcus faecalis it was 4 µg/mL (≈ 6.02 µM); in data set [4], 4 µg/mL (≈ 6.02 µM). Further, the MIC is 8 µg/mL (≈ 12 µM) in the data set on Klebsiella pneumoniae, 8 µg/mL (≈ 12 µM) against Acinetobacter baumannii, 8 µg/mL (≈ 12 µM) in the data set on Escherichia coli and 128 µg/mL (≈ 193 µM) against Pseudomonas aeruginosa. The 50% haemolytic concentration (HC50) in data set [5] came to 30.2 µg/mL. In addition, in data set [6], the selectivity ratio is 15.1.

`CC(=O)c1c(OCCCN2CCOCC2)c2c(c3c1OC(C)(CCC=C(C)C)C=C3)OC(C)(CCC=C(C)C)C=C2` (stereo unspecified): the MIC (with Staphylococcus aureus [1]; against Staphylococcus aureus [2]; against Staphylococcus aureus [3]; in the data set with Bacillus subtilis; in the data set with Enterococcus faecalis; in [4]) was over 128 µg/mL throughout. Further, the MIC against Klebsiella pneumoniae, against Acinetobacter baumannii, against Escherichia coli and against Pseudomonas aeruginosa was over 128 µg/mL throughout. Besides, the HC50 in [5] was over 128 µg/mL. Further, in data set [6], the selectivity ratio was under 10.

Consider `CC(=O)c1c(OCCCNCCCN2CCOCC2)c2c(c3c1OC(C)(CCC=C(C)C)C=C3)OC(C)(CCC=C(C)C)C=C2` (stereo unspecified), for which the minimum inhibitory concentration (MIC) was determined as 4 µg/mL (≈ 6.44 µM) in the data set on Staphylococcus aureus [1]; 4 µg/mL (≈ 6.44 µM) with Staphylococcus aureus [2]; 4 µg/mL (≈ 6.44 µM) against Staphylococcus aureus [3]; 4 µg/mL (≈ 6.44 µM) against Bacillus subtilis; 8 µg/mL (≈ 12.9 µM) in the data set on Enterococcus faecalis; 4 µg/mL (≈ 6.44 µM) in [4]. The MIC is 128 µg/mL (≈ 206 µM) with Klebsiella pneumoniae, 128 µg/mL (≈ 206 µM) against Acinetobacter baumannii, over 128 µg/mL against Escherichia coli and over 128 µg/mL against Pseudomonas aeruginosa. In data set [5], the concentration for 50% haemolysis (HC50) worked out at 18.1 µg/mL. Besides, the selectivity ratio in [6] was 4.5.

As to `CC(=O)c1ccc2c(c1OCC(=O)N(CCCN)CCCN)C=CC(C)(CCC=C(C)C)O2.Cl.Cl` (stereo unspecified), the MIC is over 128 µg/mL in the data set with Staphylococcus aureus [1]; over 128 µg/mL in the data set on Staphylococcus aureus [2]; 128 µg/mL against Staphylococcus aureus [3]; 32 µg/mL against Bacillus subtilis; over 128 µg/mL in the data set with Enterococcus faecalis; 128 µg/mL in [4]. For the same compound, the minimum inhibitory concentration (MIC) in the data set with Klebsiella pneumoniae, against Acinetobacter baumannii, in the data set on Escherichia coli and in the data set on Pseudomonas aeruginosa was over 128 µg/mL each time. In data set [5], this compound showed a 50% haemolytic concentration (HC50) of 1670 µg/mL. Further, in data set [6], the selectivity ratio is 13.

As for `CC(=O)c1ccc2c(c1OCC(=O)NCCCN1CCOCC1)C=CC(C)(CCC=C(C)C)O2` (stereo unspecified), the minimal inhibitory concentration (MIC) was determined as 128 µg/mL (≈ 272 µM) against Staphylococcus aureus [1]; 128 µg/mL (≈ 272 µM) in the data set with Staphylococcus aureus [2]; 64 µg/mL (≈ 136 µM) in the data set on Staphylococcus aureus [3]; 128 µg/mL (≈ 272 µM) against Bacillus subtilis; 128 µg/mL (≈ 272 µM) in the data set with Enterococcus faecalis; 128 µg/mL (≈ 272 µM) in data set [4]. Moreover, the MIC was 128 µg/mL (≈ 272 µM) against Klebsiella pneumoniae, 128 µg/mL (≈ 272 µM) against Acinetobacter baumannii, over 128 µg/mL in the data set on Escherichia coli and over 128 µg/mL with Pseudomonas aeruginosa. In data set [5], this compound gave an HC50 of 261 µg/mL. Moreover, the selectivity ratio in data set [6] was 4.1.

As for `CC(=O)c1ccc2c(c1OCCCN1CCSCC1)C=CC(C)(CCC=C(C)C)O2` (stereo unspecified), the minimal inhibitory concentration (MIC) (in the data set with Staphylococcus aureus [1]; in the data set with Staphylococcus aureus [2]; with Staphylococcus aureus [3]; in the data set with Bacillus subtilis; with Enterococcus faecalis; in data set [4]) was over 128 µg/mL each time. Further, the MIC against Klebsiella pneumoniae was over 128 µg/mL; in the data set on Acinetobacter baumannii, 128 µg/mL (≈ 298 µM); against Escherichia coli, over 128 µg/mL; in the data set on Pseudomonas aeruginosa it was over 128 µg/mL. Also, the 50% haemolytic concentration (HC50) in data set [5] is over 1280 µg/mL. In addition, in data set [6], the selectivity ratio is under 10.

As to `CC(=O)c1ccc2c(c1OCCCN(C)C)C=CC(C)(CCC=C(C)C)O2` (stereo unspecified), the MIC in the data set with Staphylococcus aureus [1] was determined as 16 µg/mL (≈ 43.1 µM); against Staphylococcus aureus [2], 16 µg/mL (≈ 43.1 µM); in the data set on Staphylococcus aureus [3], 16 µg/mL (≈ 43.1 µM); with Bacillus subtilis, 16 µg/mL (≈ 43.1 µM); with Enterococcus faecalis, 16 µg/mL (≈ 43.1 µM); in data set [4], 8 µg/mL (≈ 21.5 µM). Also, the MIC with Klebsiella pneumoniae is 8 µg/mL (≈ 21.5 µM); in the data set on Acinetobacter baumannii, 16 µg/mL (≈ 43.1 µM); against Escherichia coli it was 32 µg/mL (≈ 86.1 µM); against Pseudomonas aeruginosa, 64 µg/mL (≈ 172 µM). Further, the 50% haemolytic concentration (HC50) in data set [5] is 194 µg/mL. Also, the selectivity ratio in [6] turned out to be 11.9.

For the compound `CNCCCOc1ccc(/C=C/C(=O)c2ccc3c(c2OC)C=CC(C)(CCC=C(C)C)O3)cc1` (stereo unspecified), the MIC with Staphylococcus aureus [1] is 8 µg/mL (≈ 16.8 µM); against Staphylococcus aureus [2] it was 8 µg/mL (≈ 16.8 µM); in the data set on Staphylococcus aureus [3] it was 16 µg/mL (≈ 33.6 µM); in the data set on Bacillus subtilis it was 4 µg/mL (≈ 8.41 µM); in the data set with Enterococcus faecalis it was 4 µg/mL (≈ 8.41 µM); in [4] it was 1 µg/mL (≈ 2.1 µM). Besides, the MIC with Klebsiella pneumoniae was 32 µg/mL (≈ 67.3 µM); with Acinetobacter baumannii, over 128 µg/mL; in the data set with Escherichia coli, over 128 µg/mL; in the data set with Pseudomonas aeruginosa, over 128 µg/mL. The compound further returned an HC50 in data set [5] of 90.5 µg/mL. For the same compound, the selectivity ratio in [6] was found to be 5.6.

Take `COc1c(C(=O)/C=C/c2ccc(OCCCN)cc2)ccc2c1C=CC(C)(CCC=C(C)C)O2` (stereo unspecified): the MIC against Staphylococcus aureus [1] was 8 µg/mL (≈ 17.3 µM); in the data set with Staphylococcus aureus [2], 16 µg/mL (≈ 34.7 µM); against Staphylococcus aureus [3], 8 µg/mL (≈ 17.3 µM); against Bacillus subtilis, 8 µg/mL (≈ 17.3 µM); against Enterococcus faecalis, 16 µg/mL (≈ 34.7 µM); in data set [4], 8 µg/mL (≈ 17.3 µM). Further, the MIC in the data set on Klebsiella pneumoniae was 16 µg/mL (≈ 34.7 µM); against Acinetobacter baumannii it was 16 µg/mL (≈ 34.7 µM); in the data set with Escherichia coli, 8 µg/mL (≈ 17.3 µM); against Pseudomonas aeruginosa, 16 µg/mL (≈ 34.7 µM). The compound also returned an HC50 in data set [5] of 111 µg/mL. Besides, the selectivity ratio in data set [6] was 13.8.

On to `COc1c(C(=O)/C=C/c2ccc(OCCCN(C)CCCN(C)C)cc2)ccc2c1C=CC(C)(CCC=C(C)C)O2` (stereo unspecified), for which the minimum inhibitory concentration (MIC) against Staphylococcus aureus [1] came to 4 µg/mL (≈ 7.13 µM); against Staphylococcus aureus [2], 4 µg/mL (≈ 7.13 µM); in the data set with Staphylococcus aureus [3] it was 4 µg/mL (≈ 7.13 µM); against Bacillus subtilis, 4 µg/mL (≈ 7.13 µM); against Enterococcus faecalis it was 2 µg/mL (≈ 3.57 µM); in data set [4] it was 1 µg/mL (≈ 1.78 µM). Further, the MIC with Klebsiella pneumoniae is 4 µg/mL (≈ 7.13 µM); in the data set with Acinetobacter baumannii it was 8 µg/mL (≈ 14.3 µM); in the data set with Escherichia coli it was 2 µg/mL (≈ 3.57 µM); against Pseudomonas aeruginosa, over 128 µg/mL. Further, the HC50 in data set [5] worked out at 119 µg/mL. In data set [6], the selectivity ratio is 29.8.

Consider `CC(=O)c1ccc2c(c1OCCCN(C)CCCN(C)C)C=CC(C)(CCC=C(C)C)O2` (stereo unspecified), for which the MIC amounted to 16 µg/mL (≈ 36.1 µM) in the data set with Staphylococcus aureus [1]; 32 µg/mL (≈ 72.3 µM) against Staphylococcus aureus [2]; 16 µg/mL (≈ 36.1 µM) with Staphylococcus aureus [3]; 16 µg/mL (≈ 36.1 µM) with Bacillus subtilis; 16 µg/mL (≈ 36.1 µM) against Enterococcus faecalis; 16 µg/mL (≈ 36.1 µM) in [4]. Also, the MIC against Klebsiella pneumoniae is 8 µg/mL (≈ 18.1 µM); against Acinetobacter baumannii it was 8 µg/mL (≈ 18.1 µM); against Escherichia coli it was 8 µg/mL (≈ 18.1 µM); in the data set on Pseudomonas aeruginosa it was 32 µg/mL (≈ 72.3 µM). For the same compound, in [5], the 50% haemolytic concentration (HC50) was found to be 160 µg/mL. Further, the selectivity ratio in [6] stood at 10.
